Data: PMC6934184, “Selective DNA-PKcs inhibition extends the therapeutic index of localized radiotherapy and chemotherapy” (The Journal of Clinical Investigation, 2019)

Molecular target: T1, AXL (Homo sapiens, UniProt P30530)
T1 construct: purchased Thermo Fisher Scientific (Life Technologies) SelectScreen
Assay: SelectScreen Z'LYTE
Type: biochemical
In short: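 SelectScreen broad panel; activity (Z'LYTE, Adapta) plus binding formats. ATP: Km app for CSF1R Z'LYTE; 10 for CAMK1 Adapta. Readout = % per kinase.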

T1 sequence (P30530 26-894): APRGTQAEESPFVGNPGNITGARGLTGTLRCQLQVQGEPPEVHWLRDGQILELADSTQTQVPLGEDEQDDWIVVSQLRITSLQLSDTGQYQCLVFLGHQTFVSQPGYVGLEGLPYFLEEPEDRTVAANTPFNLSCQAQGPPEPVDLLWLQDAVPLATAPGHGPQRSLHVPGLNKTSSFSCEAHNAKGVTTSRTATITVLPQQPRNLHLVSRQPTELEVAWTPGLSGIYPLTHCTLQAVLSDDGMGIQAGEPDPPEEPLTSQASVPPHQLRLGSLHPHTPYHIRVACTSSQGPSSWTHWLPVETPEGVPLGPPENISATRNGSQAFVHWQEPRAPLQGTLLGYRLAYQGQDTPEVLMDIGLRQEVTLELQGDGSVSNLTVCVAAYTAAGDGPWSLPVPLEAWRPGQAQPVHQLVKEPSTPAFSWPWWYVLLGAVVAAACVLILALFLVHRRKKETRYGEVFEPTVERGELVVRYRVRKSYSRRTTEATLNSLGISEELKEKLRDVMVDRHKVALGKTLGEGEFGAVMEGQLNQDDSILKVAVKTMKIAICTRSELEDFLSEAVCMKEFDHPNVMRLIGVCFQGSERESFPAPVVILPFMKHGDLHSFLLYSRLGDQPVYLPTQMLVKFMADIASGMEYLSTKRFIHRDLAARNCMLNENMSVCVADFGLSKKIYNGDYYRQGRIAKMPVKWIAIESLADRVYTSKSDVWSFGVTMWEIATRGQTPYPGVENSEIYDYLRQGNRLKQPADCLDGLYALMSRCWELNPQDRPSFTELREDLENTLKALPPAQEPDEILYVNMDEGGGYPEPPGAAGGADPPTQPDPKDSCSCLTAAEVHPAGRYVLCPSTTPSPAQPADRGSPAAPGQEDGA

CN(C(=O)CN1CCOCC1)c1ccc2sc3c(-c4cccc5c(=O)cc(N6CC7CCC(C6)O7)oc45)cccc3c2c1 [NU5455]
inhibition at 1 µM: -4.2%
